Assay results: EP0082731A1, “The use of peptides as medicaments” (NOVO INDUSTRI A/S, priority 1981, dated 1983)

Tested on: rats
Assay: Experiment B2: oral glucose tolerance test in rats
Type: in vivo, Wistar rats
Settings: glucose 5 g/kg perorally at 0 and 60 min, glucagon(1-21) 1 mg/kg at 0, 30, 60, 90 min
Experimental: The effect of glucagon(1-21) was investigated in rats during an oral glucose tolerance test. 20 male Wistar rats were divided into 2 groups of 10 rats-and dosed as follows: Both groups were dosed with glucose (5 g/kg, perorally) at 0 and 60 minutes. The placebo group was dosed with 1 ml of 0.9% saline with 0.1% HSA intraperitoneally at the times 0, 30, 60, and 90 minutes. The other group was dosed with glucagon(1-21) (1 mg/kg) in 0.9% saline with HSA . at the times 0, 30, 60, and 90 minutes. Blood samples were drawn from the tails at the times -5, 0, 15, 30, 45, 60, 90, and 120 minutes for blood glucose determination. The blood glucose values are stated in Table III below.

glucagon-(1-21)-heneicosapeptide (HSQGTFTSDYSKYLDSRRAQD; Glucagon; UniProt P01275 53-73, looked up, fragment) [glucagon(1-21)]
Blood glucose (time 0 min): 0.96 mg/mL
Blood glucose (time 15 min): 1.32 mg/mL
Blood glucose (time 30 min): 1.35 mg/mL
Blood glucose (time 45 min): 1.23 mg/mL
Blood glucose (time 60 min): 1.36 mg/mL
Blood glucose (time 90 min): 1.37 mg/mL
Blood glucose (time 120 min): 1.37 mg/mL
Blood glucose (time -5 min): 0.89 mg/mL
